Assay results published in the NIST ThermoML archive (doi:10.1021/acs.jced.6b00430).

Experiment: xn = mol fraction of the nth substance listed
Conditions: 100 kPa, Liquid; for electrical conductivity: Alternating current cell with electrodes; for viscosity: Capillary tube (Ostwald / Ubbelohde) method; for mass density: Vibrating tube method

O=[PH](O)O [phosphonic acid] + O
Conditions	electrical conductivity [S/m]	mass density [kg/m3]	viscosity [mPa·s]
298.15 K, x1 = 0.0122	7.43	1022.04	0.962
298.15 K, x1 = 0.0215	10.4	1039.69	1.05
298.15 K, x1 = 0.0299	13.4	1055.02	1.17
298.15 K, x1 = 0.0403	16.9	1073.24	–
298.15 K, x1 = 0.0451	–	1081.91	–
298.15 K, x1 = 0.0484	18.5	1087.03	–
298.15 K, x1 = 0.0541	20	1096.6	–
298.15 K, x1 = 0.0682	22.1	1119.23	–
298.15 K, x1 = 0.0704	22.4	1122.59	1.64
298.15 K, x1 = 0.0799	23.9	1137.16	–
298.15 K, x1 = 0.0832	–	1141.9	–
298.15 K, x1 = 0.1011	25.9	1167.81	2.06
298.15 K, x1 = 0.1335	26	1210.62	2.6
298.15 K, x1 = 0.1689	25.7	1252.12	–
298.15 K, x1 = 0.1909	25.2	1275.45	–
298.15 K, x1 = 0.197	25	1281.23	–
298.15 K, x1 = 0.2154	24.5	1299.73	4.24
298.15 K, x1 = 0.2524	23.1	1332.1	5.19
298.15 K, x1 = 0.292	20.7	1363.42	6.26
298.15 K, x1 = 0.3959	15.4	1434.35	–
308.15 K, x1 = 0.0122	7.89	1018.53	0.782
308.15 K, x1 = 0.0215	11.3	1035.86	0.852
308.15 K, x1 = 0.0299	14.3	1050.95	0.94
308.15 K, x1 = 0.0403	18.4	1068.89	–
308.15 K, x1 = 0.0451	–	1077.48	–
308.15 K, x1 = 0.0484	20	1082.48	–
308.15 K, x1 = 0.0541	21.3	1091.91	–
308.15 K, x1 = 0.0682	23.9	1114.22	–
308.15 K, x1 = 0.0704	24.2	1117.57	1.31
308.15 K, x1 = 0.0799	25.5	1131.9	–
308.15 K, x1 = 0.0832	–	1136.63	–
308.15 K, x1 = 0.1011	27.4	1162.2	1.65
308.15 K, x1 = 0.1335	28.6	1204.48	2.08
308.15 K, x1 = 0.1689	28.5	1245.45	–
308.15 K, x1 = 0.1909	28.5	1268.54	–
308.15 K, x1 = 0.197	28	1274.31	–
308.15 K, x1 = 0.2154	28	1292.62	3.32
308.15 K, x1 = 0.2524	25.8	1324.67	4.12
308.15 K, x1 = 0.292	23.9	1355.74	4.94
308.15 K, x1 = 0.3959	18.5	1426.18	–
318.15 K, x1 = 0.0122	8.18	1013.66	0.636
318.15 K, x1 = 0.0215	11.8	1030.98	0.689
318.15 K, x1 = 0.0299	15	1045.97	0.754
318.15 K, x1 = 0.0403	19.2	1063.78	–
318.15 K, x1 = 0.0451	–	1072.47	–
318.15 K, x1 = 0.0484	20.9	1077.26	–
318.15 K, x1 = 0.0541	22.4	1086.62	–
318.15 K, x1 = 0.0682	25.4	1108.74	–
318.15 K, x1 = 0.0704	25.8	1112.04	1.06
318.15 K, x1 = 0.0799	27.3	1126.27	–
318.15 K, x1 = 0.0832	–	1130.94	–
318.15 K, x1 = 0.1011	29.7	1156.21	1.32
318.15 K, x1 = 0.1335	31.3	1198.05	1.66
318.15 K, x1 = 0.1689	31.5	1238.7	–
318.15 K, x1 = 0.1909	31.2	1261.54	–
318.15 K, x1 = 0.197	30.8	1267.22	–
318.15 K, x1 = 0.2154	30	1285.38	2.68
318.15 K, x1 = 0.2524	28.8	1317.07	3.27
318.15 K, x1 = 0.292	27.2	1347.86	3.9
318.15 K, x1 = 0.3959	21.1	1418.01	–
328.15 K, x1 = 0.0122	8.38	1009.46	0.529
328.15 K, x1 = 0.0215	12.1	1026.28	0.567
328.15 K, x1 = 0.0299	15.3	1041.02	0.617
328.15 K, x1 = 0.0403	19.6	1058.55	–
328.15 K, x1 = 0.0451	–	1066.53	–
328.15 K, x1 = 0.0484	21.9	1071.83	–
328.15 K, x1 = 0.0541	23.5	1081.05	–
328.15 K, x1 = 0.0682	26.5	1102.88	–
328.15 K, x1 = 0.0704	26.9	1106.07	0.866
328.15 K, x1 = 0.0799	28.6	1120.18	–
328.15 K, x1 = 0.0832	–	1124.84	–
328.15 K, x1 = 0.1011	31	1149.89	1.07
328.15 K, x1 = 0.1335	33.3	1191.35	1.35
328.15 K, x1 = 0.1689	33.8	1231.63	–
328.15 K, x1 = 0.1909	33.3	1254.36	–
328.15 K, x1 = 0.197	33.2	1259.95	–
328.15 K, x1 = 0.2154	32.5	1277.98	2.2
328.15 K, x1 = 0.2524	31.3	1309.72	2.65
328.15 K, x1 = 0.292	30.2	1340.42	3.14
328.15 K, x1 = 0.3959	24.1	1409.83	–
338.15 K, x1 = 0.0122	8.4	1001.4	0.464
338.15 K, x1 = 0.0215	12.2	1018.77	0.49
338.15 K, x1 = 0.0299	15.6	1033.72	0.531
338.15 K, x1 = 0.0403	20.3	1051.48	–
338.15 K, x1 = 0.0451	–	1060.26	–
338.15 K, x1 = 0.0484	22.9	1064.9	–
338.15 K, x1 = 0.0541	24.2	1074.21	–
338.15 K, x1 = 0.0682	27.7	1096.19	–
338.15 K, x1 = 0.0704	28.2	1099.46	0.749
338.15 K, x1 = 0.0799	30	1113.58	–
338.15 K, x1 = 0.0832	–	1118.32	–
338.15 K, x1 = 0.1011	32.9	1143.23	0.922
338.15 K, x1 = 0.1335	35.3	1184.38	1.16
338.15 K, x1 = 0.1689	35.5	1224.52	–
338.15 K, x1 = 0.1909	35	1246.94	–
338.15 K, x1 = 0.197	34.9	1252.51	–
338.15 K, x1 = 0.2154	34.1	1270.41	1.88
338.15 K, x1 = 0.2524	33.5	1301.38	2.25
338.15 K, x1 = 0.292	32.4	1331.63	2.66
338.15 K, x1 = 0.3959	25.9	1401.65	–
